For test [1], the target named is Thymidylate synthase (Escherichia coli K-12, UniProt P0A884). In words: Inhibition of Escherichia coli thymidylate synthase A.
Test [2] addresses Thymidylate synthase (Homo sapiens, UniProt P04818).
Description: Inhibition of human thymidylate synthase A
Test [3] deals with T1, Dihydrofolate reductase (Homo sapiens, UniProt P00374).
T1 sequence (P00374 whole entry): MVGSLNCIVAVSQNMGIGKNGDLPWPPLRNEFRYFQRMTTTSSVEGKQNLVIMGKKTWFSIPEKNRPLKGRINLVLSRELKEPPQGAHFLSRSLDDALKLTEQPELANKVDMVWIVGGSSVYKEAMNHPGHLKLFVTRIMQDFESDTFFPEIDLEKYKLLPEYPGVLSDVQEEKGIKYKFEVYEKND
Kind of test: Inhibition of human DHFR.

pKi: −log10 of the molar value.

Chain of Thymidylate synthase (Escherichia coli K-12, UniProt P0A884) (P0A884 whole entry): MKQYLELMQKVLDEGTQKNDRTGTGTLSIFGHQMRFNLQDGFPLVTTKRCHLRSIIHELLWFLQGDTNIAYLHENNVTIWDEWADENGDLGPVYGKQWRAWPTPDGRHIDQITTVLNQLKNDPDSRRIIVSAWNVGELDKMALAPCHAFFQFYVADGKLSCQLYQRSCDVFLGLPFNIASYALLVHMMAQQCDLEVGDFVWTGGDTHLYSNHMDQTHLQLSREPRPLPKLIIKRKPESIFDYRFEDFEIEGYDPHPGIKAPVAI
Chain of Thymidylate synthase (Homo sapiens, UniProt P04818) (P04818 whole entry): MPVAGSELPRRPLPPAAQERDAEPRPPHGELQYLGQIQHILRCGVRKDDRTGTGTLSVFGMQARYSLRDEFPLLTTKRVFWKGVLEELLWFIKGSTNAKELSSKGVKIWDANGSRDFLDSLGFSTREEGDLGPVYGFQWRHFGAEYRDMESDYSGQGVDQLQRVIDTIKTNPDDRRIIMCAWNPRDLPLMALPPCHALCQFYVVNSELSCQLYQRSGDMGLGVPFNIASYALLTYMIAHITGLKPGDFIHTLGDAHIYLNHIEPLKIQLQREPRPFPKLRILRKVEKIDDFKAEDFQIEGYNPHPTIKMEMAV

Usually pKi stands for the negative decadic logarithm of the Ki, by convention in mol/L. Low readings indicate a high Ki, high ones a low Ki. On to `O=C1Sc2cccc3cccc1c23`, for which the pKi in test [1] is under 3.71; in test [2], 5.51. In test [1], `O=C1OC(=O)c2cc(NS(=O)(=O)c3cccs3)cc3cccc1c23` had a pKi of 5.66. Compound `O=C1OC(=O)c2cccc3cccc1c23` [1,8-NAPHTHALIC ANHYDRIDE] showed a pKi in test [1] of under 3.53. Still for that read-out and setting: the same measure for `COC(=O)CCC(=O)Nc1cc2c3c(cccc3c1)C(=O)OC2=O`: 5.15.

Consider `Nc1ccc2c3c(cccc13)C(=O)OC2=O`, for which the pKi is under 3.82 in test [1] and under 3.80 in test [2]. In the same order, the values of `Nc1cc2c3c(cccc3c1)C(=O)OC2=O` are 5.17 and under 3.39. In the same order, the values of `O=C(Nc1cc2c3c(cccc3c1)C(=O)OC2=O)c1ccc(C(F)(F)F)cc1` are 5.19 and under 3.69. In test [1], `CCOC(=O)CSc1ccc2c3c(cccc13)C(=O)OC2=O` gave a pKi of under 3.23.

As to `CC1(C)C(=O)c2cccc3cccc(c23)C1=O`, the results for the pKi in test [1] and in test [2] were under 3.23 and 4.48, respectively. The like results for `N#CC(C#N)=c1c(=O)c2cccc3cccc1c32` were, in that order, under 3.53 and under 3.51. The like results for `O=C1OC(c2ccccc2)(c2ccccc2)c2cccc3cccc1c23` were, in that order, under 3.53 and under 3.51. For the compound `O=C1OC(=O)c2cc(NS(=O)(=O)c3cccc4ccccc34)cc3cccc1c23`, the pKi in test [1] is 5.96. With `O=C(Nc1cc2c3c(cccc3c1)C(=O)OC2=O)c1cccc([N+](=O)[O-])c1`, the negative-log Ki (pKi) in test [1] is 5.14; in test [3] it was under 3.96. As for `O=C(/C=C/c1cccc(C(F)(F)F)c1)Nc1cc2c3c(cccc3c1)C(=O)OC2=O`, the negative-log Ki (pKi) in test [1] was 4.97; in test [2], under 3.69.

`Cc1onc(-c2c(F)cccc2Cl)c1C(=O)Nc1cc2c3c(cccc3c1)C(=O)OC2=O`: the pKi in test [1] was 5.21; in test [3], under 3.48. `Cn1cc(-c2ccc(S(=O)(=O)Nc3cc4c5c(cccc5c3)C(=O)OC4=O)s2)cc1C(F)(F)F` showed a pKi in test [1] of 5.72. On the same count and under the same terms, the same measure for `O=C1OC(=O)c2cc(NS(=O)(=O)c3ccc(C(F)(F)F)cc3[N+](=O)[O-])cc3cccc1c23`: 5.89; for `O=C(O)c1ccc2c3c(cccc13)C(=O)OC2=O`: 4.57. On to `O=C(/C=C/c1ccccc1Cl)Nc1cc2c3c(cccc3c1)C(=O)OC2=O`, for which the pKi is 4.49 in test [1] and under 3.21 in test [2]. Turning to `O=C1OC(=O)c2ccc(Cl)c3cccc1c23`, the pKi in test [1] is 3.98. On the same count and under the same terms, next, `O=C1OC(=O)c2cc(NS(=O)(=O)c3ccc([N+](=O)[O-])cc3)cc3cccc1c23`: 5.92. Take `O=C1Oc2cccc3cccc1c23`: the negative logarithm of the Ki (pKi) was under 3.58 in test [1] and 5.38 in test [2]. For the compound `O=C(Cc1cccs1)Nc1cc2c3c(cccc3c1)C(=O)OC2=O`, the negative logarithm of the Ki (pKi) in test [1] is 5.28. Compound `O=C1OC(=O)c2cc(NS(=O)(=O)/C=C/c3ccccc3)cc3cccc1c23` had a pKi in test [1] of 6.52.

As to `O=C(Nc1cc2c3c(cccc3c1)C(=O)OC2=O)c1ccc([N+](=O)[O-])cc1`, the pKi in test [1] was 4.77. For `Cc1onc(-c2ccccc2Cl)c1C(=O)Nc1cc2c3c(cccc3c1)C(=O)OC2=O`, the figures for the negative-log Ki (pKi) in test [1] and in test [2] were 4.35 and under 3.08, respectively. Compound `O=C(Nc1cc2c3c(cccc3c1)C(=O)OC2=O)c1cccc(C(F)(F)F)c1` had a pKi in test [1] of 5.36.

Consider `O=C(Nc1cc2c3c(cccc3c1)C(=O)OC2=O)c1sc2ccccc2c1Cl`, for which the pKi in test [1] is 5.19; in test [3] it was under 4.26; in test [2] it was under 3.39. On to `O=C1OCc2cccc3cccc1c23`, for which the negative-log Ki (pKi) in test [1] is under 3.52; in test [2], 4.33. `O=C(Nc1cc2c3c(cccc3c1)C(=O)OC2=O)c1ccc([N+](=O)[O-])o1` gave a pKi in test [1] of 5.17. Same read-out and setting: the same measure for `O=C1OC(=O)c2cc(NS(=O)(=O)c3cc(Cl)sc3Cl)cc3cccc1c23`: 5.34. `O=C1OC(=O)c2ccc(SCCO)c3cccc1c23`: the pKi in test [1] was under 3.35; in test [2] it was under 3.32. The like results for `O=C1OC(=O)c2ccc(S(=O)(=O)O)c3cccc1c23` were, in that order, under 3.11 and under 3.08. On to `Cc1ccc2c3c(cccc13)C(=O)CC2`, for which the pKi in test [1] is under 3.53; in test [2], 5.51. `O=C1OC(=O)c2cc(NS(=O)(=O)c3ccc(S(=O)(=O)c4ccccc4)s3)cc3cccc1c23` gave a pKi in test [1] of 5.92. For the compound `O=C1/C(=N/c2ccccc2)c2cccc3cccc1c23`, the pKi in test [1] was under 3.53; in test [2], under 3.51. For `O=C1OC(=O)c2cc(NS(=O)(=O)c3cccc4nsnc34)cc3cccc1c23`, in test [1], the pKi was 6.05. In test [1], `O=C1OC(=O)c2cc(NS(=O)(=O)c3cccc4cccnc34)cc3cccc1c23` gave a negative logarithm of the Ki (pKi) of 5.54. `O=C1C(=O)c2ccc(Oc3ccc([N+](=O)[O-])cc3)c3cccc1c23`: the pKi in test [1] is under 3.99; in test [2], under 4.01. Take `Nc1ccc(C(=O)Nc2cc3c4c(cccc4c2)C(=O)OC3=O)cc1`: the pKi is 4.67 in test [1] and under 3.08 in test [2]. As to `O=C1OC(=O)c2cc(NS(=O)(=O)c3cccc([N+](=O)[O-])c3)cc3cccc1c23`, in test [1], the pKi was 5.68.

In test [1], `O=C(Nc1cc2c3c(cccc3c1)C(=O)OC2=O)c1ccc2c(c1)OCO2` showed a pKi of 5.13. As for `O=C1OC(=O)c2cc([N+](=O)[O-])cc3cccc1c23`, the negative-log Ki (pKi) in test [1] was under 3.71; in test [2] it was under 3.69. `O=C1OC(=O)c2cc(NS(=O)(=O)c3ccccc3)cc3cccc1c23` showed a pKi in test [1] of 5.38. Still for that read-out and setting: next, `O=C(Nc1cc2c3c(cccc3c1)C(=O)OC2=O)c1ccc(Cl)c([N+](=O)[O-])c1`: 5.40.
